Several values for one entry are separate records, joined by “and”; a condition that tells them apart may be missing. Equal entries are not always repeated.
How the values were obtained:
[1] = liver cancer patients; cited from earlier work
[2] = system: HepG2 liver cancer cell line; experiment: CCK8 proliferation experiment, HepG2; format: cell-based, human; details: inhibitor 10 μM and 20 μM groups vs 1‰ DMSO, OD 450 nm at 0-72 h
Procedure: (§1) 1) On the first day, PLC/PRF/5 or HepG2 cells were seeded onto a 6-well plate.
(§2) 2) On the second day, when the cell confluence was about 40-50%, NPC1-sh or NPC1-control lentivirus was added at 200 μl/well for virus infection.
(§3) 3) On the third day, puromycin was added to infected PLC/PRF/5 or HepG2 cells to a final concentration of 2 μg/mL for selection.
(§4) 4) On the sixth day, part of the cells was collected according to the conventional method for CCK8 experiment, and part of the cells were lysed to obtain proteins and subjected to Western blotting. […]
(§5) 2) On the second day, after about 24 hours of culture, the cell growth was in the logarithmic growth phase and the culture medium was replaced with a new culture medium with different concentrations of SOAT1 inhibitor in a volume of 100 μL/well. […] 10% CCK8 (100 μL/well) was added to the wells of one 96-well plate, and OD value of 0 h was measured at 450 nm after 1 h, with cell-free wells as background.
(§6) 3) On the third day, 10% CCK8 was added to the wells of one 96-well plate and OD value of 24 h was measured at 450 nm after 1 h.
(§7) 4) On the fourth day, 10% CCK8 was added to the wells of one 96-well plate and OD value of 48 h was measured at 450 nm after 1 h.
(§8) 5) On the fifth day, 10% CCK8 was added to the wells of the last 96-well plate and OD value of 72 h was measured at 450 nm after 1 h. […]

[3] = system: PLC/PRF/5 liver cancer cell line; experiment: CCK8 proliferation experiment, PLC/PRF/5; format: cell-based, human; details: inhibitor 10 μM and 20 μM groups vs 1‰ DMSO, OD 450 nm at 0-72 h
Procedure: as §1, §2, §3, §4, §5, §6, §7, §8

[4] = system: MHCC97H liver cancer cell line; experiment: CCK8 proliferation experiment, MHCC97H; format: cell-based, human; details: inhibitor 10 μM and 20 μM groups vs 1‰ DMSO, OD 450 nm at 0-72 h
Procedure: (§9) 1) On the first day, after routine trypsinization and counting of cells in a 60 mm culture dish, the cells were seeded onto four 96-well plates at a density of 5000 cells/well.
(§10) 2) On the second day, after about 24 hours of culture, the cell growth was in the logarithmic growth phase and the culture medium was replaced with a new culture medium with different concentrations of SOAT1 inhibitor in a volume of 100 μL/well. 10 μM group, 20 μM group and control group (1‰ DMSO) were set, each group included three repeated wells. 10% CCK8 (100 μL/well) was added to the wells of one 96-well plate, and OD value of 0 h was measured at 450 nm after 1 h, with cell-free wells as background.
as §6, §7
(§11) 5) On the fifth day, 10% CCK8 was added to the wells of the last 96-well plate and OD value of 72 h was measured at 450 nm after 1 h.
(§12) 6) OD values at all time points were summarized and a growth curve was drawn.

[5] = system: Huh7 liver cancer cell line; experiment: CCK8 proliferation experiment, Huh7; format: cell-based, human; details: inhibitor 10 μM and 20 μM groups vs 1‰ DMSO, OD 450 nm at 0-72 h
Procedure: as §9, §10, §6, §7, §11, §12

[6] = system: cervical cancer cell line Hela; experiment: CCK8 proliferation experiment, Hela; format: cell-based, human
Procedure: as §9, §10, §6, §7, §11, §12

[7] = system: colon cancer cell line HCT116; experiment: CCK8 proliferation experiment, HCT116; format: cell-based, human
Procedure: as §9, §10, §6, §7, §11, §12

[8] = system: non-small cell lung cancer cell line A549; experiment: CCK8 proliferation experiment, A549; format: cell-based, human
Procedure: as §9, §10, §6, §7, §11, §12

[9] = system: esophageal cancer cell line ECA109; experiment: CCK8 proliferation experiment, ECA109; format: cell-based, human
Procedure: as §9, §10, §6, §7, §11, §12

[10] = system: leukemia cell line Jurkat; experiment: CCK8 proliferation experiment, Jurkat; format: cell-based, human
Procedure: as §9, §10, §6, §7, §11, §12

[11] = system: human hepatocarcinoma HepG2 liver orthotopic transplantation tumors; experiment: Liver orthotopic transplantation tumors in nude mice bearing human hepatocarcinoma HepG2 cells; format: in vivo
Text: A total of 30 female Nu/Nu nude mice aged 5-7 weeks and weighing 18.0-21.0 g were purchased from Beijing Vital River Laboratory Animal Technology Co., Ltd., animal certificate was SCXK (JING)-2015-0001. The test animals were kept in sterile independent ventilation cages (IVC), with 5-6 mice per cage. The litter was corncob litter sterilized by ^60Co radiation, with a particle size of 4-6 mm. The animals were fed with sterilized feed specially formulated for mice and were given pure water to drink freely. The temperature in the animal laboratory was maintained at about 25° C., the relative humidity was maintained at 40-70%, and the daily light was 12 hours.
The cells in the logarithmic growth phase were digested with trypsin and collected, washed and resuspended with normal saline, so that the final cell concentration was about 1×10^7 cells/ml suspension. 0.2 ml of tumor cell suspension was injected under the skin of the right forelimb axillary in nude mice, and the tumor-bearing nude mice were established for passage and preservation.
When the subcutaneous tumor volume of the nude mice for preservation grew to 1000-1500 mm^3, tumors were removed and cut into tumor blocks of about 1.0 mm^3 for use under aseptic conditions. The nude mice to be operated were anesthetized and fixed on the operating table, and the abdominal skin was disinfected. An incision of about 1 cm was made in the upper right abdomen to expose the liver and the animal was covered with surgical drapes. The prepared tumor block was put into a special inoculation trocar, the tumor block was implanted into the liver with the trocar, and the bleeding wound was treated with a sterile cotton swab to stop bleeding. Then the liver after the operation was put back into the abdominal cavity of the mouse, and the abdominal muscles and skin of the incision were sutured sequentially with No. 4/0 surgical suture needle.
The experiment preset model control group and U18666A group.
Model animals were examined by B-ultrasound 3 weeks after operation, and grouped randomly according to B-ultrasound results. The test drug U18666A was administered intraperitoneally, once a day.
After the experiment, the animals were sacrificed by cervical dislocation. The liver was dissected, and the tumors visible to the naked eye were removed and weighed. All dissected tissues were preserved in a 4% formaldehyde solution for routine pathological examination.
Data were represented as x±SD; Tumor growth inhibition rate=(tumor weight in the control group−tumor weight in the administration group)/tumor weight in the control group×100%. All analyses were completed with GrghPad Prism software, and P<0.05 was considered to indicate a significant difference.

[12] = system: plasma membrane cholesterol; experiment: Filipin III-based cholesterol staining of the plasma membrane; format: cell-based
Procedure: (§13) Reagents: Cholesterol Cell-Based Detection Assay Kit (No10009779) was purchased from Cayman. Human sIL6R ELISA kit (BMS214) was purchased from ebioscience. The relevant experiments were conducted according to the instructions.

IL6R = experiment: sIL6R ELISA, shedding of IL6R from the cell membrane; format: cell-based
Procedure: as §13

STAT3 signaling pathway = STAT3 signaling pathway activation after IL6 stimulation (STAT3-Y705 antibody); format: cell-based
Text: The conventional western blotting method was adopted.
STAT3-Y705 (EP2147Y) antibody was purchased from Abcam.

liver cancer cells = experiment: Migration of liver cancer cells; format: cell-based

Compound | prolongation of the survival period of patients [1] [months] | proliferation of liver cancer cells (CCK8 growth curve) [2] | proliferation of liver cancer cells (CCK8 growth curve) [3] | proliferation of liver cancer cells (CCK8 growth curve) [4] | proliferation of liver cancer cells (CCK8 growth curve) [5] | proliferation of common cancer cell lines [6] | proliferation of common cancer cell lines [7] | proliferation of common cancer cell lines [8] | proliferation of common cancer cell lines [9] | proliferation of common cancer cell lines [10] | Average weight (g) Begining ([11]; body weight at beginning, nude mice, x±SD) [g] | Average weight (g) End ([11]; body weight at end, i.p., 20 mg/kg, once a day, 23 days, x±SD) [g] | Tumor growth inhibition rate (%) ([11]; by tumor weight vs control group, i.p., 20 mg/kg, once a day, 23 days) | Tumor weight ([11]; group mean x±SD, i.p., 20 mg/kg, once a day, 23 days) [g] | Tumor weight (g), individual tumors ([11]; single animals of the group, i.p., 20 mg/kg, once a day, 23 days, 20 mg/kg) | plasma membrane cholesterol [12] | shedding of IL6R receptor on the cell membrane (IL6R) | activation of STAT3 signaling pathway (STAT3 signaling pathway) | migration of liver cancer cells (liver cancer cells)
CNC(=O)c1cc(Oc2ccc(NC(=O)Nc3ccc(Cl)c(C(F)(F)F)c3)cc2)ccn1 [Sorafenib] | 3 | – | – | – | – | – | – | – | – | – | – | – | – | – | – | – | – | – | –
CCN(CC)CCO[C@H]1CC[C@@]2(C)C(=CC[C@@H]3[C@@H]2CC[C@]2(C)C(=O)CC[C@@H]32)C1.Cl [U18666A] | – | significantly inhibit the proliferation | significantly inhibit the proliferation | significantly inhibit the proliferation | significantly inhibit the proliferation | significantly inhibited the proliferation | significantly inhibited the proliferation | significantly inhibited the proliferation | significantly inhibited the proliferation | significantly inhibited the proliferation | 23.74 ± 0.86 | 23.34 ± 2.29 | 62.1 | 0.3574 ± 0.3914 | 0.0333 g and 0.0916 g and 0.0957 g and 0.0958 g and 0.1653 g and 0.3852 g and 0.5450 g and 0.5512 g and 1.2533 g | significantly down-regulated | increased shedding | blocked | significantly inhibit

— US20210263039A1, “APPLICATION OF NIEMANN-PICK C1 PROTEIN IN DIAGNOSIS AND TREATMENT OF CANCER” (BEIJING PROTEOME RESEARCH CENTER, priority 2018, published 2021)
